Test results reported in patent US11945822B2, “Pyrazolo-triazine and/or pyrazolo-pxrimidine derivatives as selective inhibitor of cyclin dependent kinase” (QURIENT CO., LTD., priority 2018, dated 2024).
pIC50: −log10 of the molar value.

Columns and labels:
[1] = target: T1, CDK1/Cyclin B (Homo sapiens, UniProt P06493); assay: Enzymatic assay for CDK1 (FRET based LANCE Ultra kinase assay); type: biochemical; conditions: read-out: CDK1 enzymatic activity (IC50 range)
T1 construct: purchased Invitrogen PR4768C
How it was run: (§1)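 Each CDK complex ([…]) phosphorylated 68 nM ULight-MBP peptide with ATP at Km for 60 min at 23° C., against 8 compound doses (4-fold dilutions). EDTA/Eu-anti-phospho-MBP detection, 60 min, then TR-FRET emission at 615 and 665 nm.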

[2] = target: T2, CDK2/Cyclin A (Homo sapiens, UniProt P24941); assay: Enzymatic assay for CDK2 (FRET based LANCE Ultra kinase assay); type: biochemical; conditions: read-out: CDK2 enzymatic activity (IC50 range)
T2 construct: purchased Invitrogen PV6290
How it was run: as §1

[3] = target: T3, CDK5/p25 (Homo sapiens, UniProt Q00535); assay: Enzymatic assay for CDK5 (FRET based LANCE Ultra kinase assay); type: biochemical; conditions: read-out: CDK5 enzymatic activity (IC50 range)
T3 construct: purchased Invitrogen PR8543B
How it was run: as §1

[4] = target: T4, CDK7/Cyclin H/MNAT1 (Homo sapiens, UniProt P50613); assay: Enzymatic assay for CDK7 (FRET based LANCE Ultra kinase assay); type: biochemical; conditions: for pIC50: read-out: CDK7 enzymatic activity (IC50 range)
T4 construct: purchased Invitrogen PR6749B
How it was run: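 Inhibition was measured at Km ATP by time-resolved FRET between a Eu anti-phospho antibody and a phosphorylated ULight peptide. The enzyme was the purified CDK7/cyclin complex, and data were curve-fitted.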

[5] = test system: HCT116; assay: Cellular HCT116 viability assay (CellTiter-Glo, 72 hours); type: cell-based; conditions: Homo sapiens, HCT-116
How it was run: (§2)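 Mycoplasma-tested cells, seeded at densities chosen for each line, received compound or DMSO vehicle (under 0.1% final) for 72 hours. Duplicate cultures were then read for viability by CellTiter-Glo luminescence.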

[6] = test system: H460; assay: Cellular H460 viability assay (CellTiter-Glo, 72 hours); type: cell-based; conditions: Homo sapiens, NCI-H460
How it was run: as §2

[7] = test system: MM.1S; assay: Cellular MM.1S viability assay (CellTiter-Glo, 72 hours); type: cell-based; conditions: Homo sapiens, MM1.S
From the text: Human T-cell acute lymphoblastic leukemia cell line, MOLT-4 (ATCC, Cat #CRL-1582), Human multiple myeloma cell line, RPMI-8226 (Invitrogen, Cat #22400-089) and MM.1S (ATCC, Cat #CRL-2974), NSCLC (Non-small cell lung cancer) cell line H460 (ATCC, Cat #HTB-177), Human colon colorectal carcinoma cell line HCT116 (ATCC, Cat #CCL-247), Human acute monocytic leukemia cell line MV4-11 (ATCC, Cat #CRL-9591), OVCAR-3 (ATCC, Cat #HTB-161) and A2780 (ECACC, Cat #93112519) were obtained from ATCC. Cells were grown in RPMI-1640 media (Invitrogen, Cat #22400-089) supplemented with 10% FBS (Invitrogen, Cat #10099141) and 1% penicillin/streptomycin (Invitrogen, Cat #15070063) and cultured at 37° C., 5% CO2 in a humidified chamber. All cell lines were routinely tested for mycoplasma.
The effect of the CDK7 inhibitor to inhibit the growth of target cancer cells was evaluated through the 72 hours time period of viability assay. Briefly, the candidate cell line ware plated in 96 well plate at the following density of cells respectively. 1×10^4 cells/well for MOLT-4, RPMI-8226, MV4-11 and MM.1S, 5×10^3 for H460, HCT116 and OVCAR-3 and IX 10^3 for A2780. After 24 hours, the cells were treated with various concentrations of the compound (ranging from 0.0015 uM to 10 uM). DMSO solvent without compound served as a control and final DMSO concentration less than 0.1%. After 72 hours of incubation at 37° C., 5% CO2 incubator, cells were analyzed for the viability using the CellTiter-Glo Luminescent Cell Viability Assay (Promega, Cat #G7570). All viability assays were performed in duplicate and Luminescence was read using an Envision (Perkin Elmer, USA). Data was analyzed using XLfit software.

[8] = test system: MV4-11; assay: Cellular MV4-11 viability assay (CellTiter-Glo, 72 hours); type: cell-based; conditions: Homo sapiens
How it was run: as §2

[9] = test system: RPMI-8226; assay: Cellular RPMI-8226 viability assay (CellTiter-Glo, 72 hours); type: cell-based; conditions: Homo sapiens
How it was run: as §2

[10] = test system: MOLT-4; assay: Cellular MOLT-4 viability assay (CellTiter-Glo, 72 hours); type: cell-based; conditions: Homo sapiens, MOLT4 viability assay
How it was run: as §2

T3 sequence (Q00535 whole entry): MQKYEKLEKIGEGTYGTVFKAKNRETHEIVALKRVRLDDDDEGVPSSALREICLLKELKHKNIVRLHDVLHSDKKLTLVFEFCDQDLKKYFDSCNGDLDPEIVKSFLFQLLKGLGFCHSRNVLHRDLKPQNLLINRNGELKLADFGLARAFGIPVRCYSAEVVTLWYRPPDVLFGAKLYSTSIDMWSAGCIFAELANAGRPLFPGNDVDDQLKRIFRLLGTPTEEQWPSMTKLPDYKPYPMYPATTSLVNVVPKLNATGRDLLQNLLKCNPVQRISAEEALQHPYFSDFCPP
T3 sequence (Q15078 99-307 partner limits assumed): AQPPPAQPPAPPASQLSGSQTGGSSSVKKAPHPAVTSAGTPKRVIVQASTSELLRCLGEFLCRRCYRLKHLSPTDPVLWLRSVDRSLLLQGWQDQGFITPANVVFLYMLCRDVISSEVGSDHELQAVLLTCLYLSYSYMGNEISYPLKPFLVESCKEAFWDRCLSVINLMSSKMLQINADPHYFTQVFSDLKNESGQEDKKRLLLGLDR
T1 sequence (P06493 whole entry): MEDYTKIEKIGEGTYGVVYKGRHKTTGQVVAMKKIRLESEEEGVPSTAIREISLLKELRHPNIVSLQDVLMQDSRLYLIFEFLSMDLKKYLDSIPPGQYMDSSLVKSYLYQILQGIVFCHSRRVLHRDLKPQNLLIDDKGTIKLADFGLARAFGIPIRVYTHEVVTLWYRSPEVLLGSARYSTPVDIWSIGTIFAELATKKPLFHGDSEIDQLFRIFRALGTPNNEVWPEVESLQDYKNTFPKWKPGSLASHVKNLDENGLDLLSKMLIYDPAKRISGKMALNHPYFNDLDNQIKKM
T1 sequence (P14635 whole entry partner): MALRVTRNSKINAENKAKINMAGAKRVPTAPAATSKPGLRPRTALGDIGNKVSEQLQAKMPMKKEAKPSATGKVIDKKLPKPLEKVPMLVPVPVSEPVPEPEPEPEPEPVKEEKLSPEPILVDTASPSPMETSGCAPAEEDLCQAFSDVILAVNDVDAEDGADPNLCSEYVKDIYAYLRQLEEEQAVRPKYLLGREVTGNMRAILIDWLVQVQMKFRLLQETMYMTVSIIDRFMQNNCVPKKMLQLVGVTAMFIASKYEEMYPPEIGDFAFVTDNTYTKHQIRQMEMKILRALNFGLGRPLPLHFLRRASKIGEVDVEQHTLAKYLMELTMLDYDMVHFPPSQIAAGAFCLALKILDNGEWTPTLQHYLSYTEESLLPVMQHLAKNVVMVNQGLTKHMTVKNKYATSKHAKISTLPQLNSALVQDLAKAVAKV
T4 sequence (P50613 whole entry): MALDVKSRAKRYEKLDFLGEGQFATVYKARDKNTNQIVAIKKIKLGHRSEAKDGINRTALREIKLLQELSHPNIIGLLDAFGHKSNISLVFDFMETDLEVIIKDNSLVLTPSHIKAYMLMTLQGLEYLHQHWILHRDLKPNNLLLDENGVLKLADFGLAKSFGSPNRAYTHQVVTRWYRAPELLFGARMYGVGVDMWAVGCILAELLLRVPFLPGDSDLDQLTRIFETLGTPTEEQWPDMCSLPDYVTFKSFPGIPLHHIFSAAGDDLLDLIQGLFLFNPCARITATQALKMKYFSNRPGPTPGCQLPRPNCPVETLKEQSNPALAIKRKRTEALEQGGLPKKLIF
T4 sequence (P51946 whole entry partner): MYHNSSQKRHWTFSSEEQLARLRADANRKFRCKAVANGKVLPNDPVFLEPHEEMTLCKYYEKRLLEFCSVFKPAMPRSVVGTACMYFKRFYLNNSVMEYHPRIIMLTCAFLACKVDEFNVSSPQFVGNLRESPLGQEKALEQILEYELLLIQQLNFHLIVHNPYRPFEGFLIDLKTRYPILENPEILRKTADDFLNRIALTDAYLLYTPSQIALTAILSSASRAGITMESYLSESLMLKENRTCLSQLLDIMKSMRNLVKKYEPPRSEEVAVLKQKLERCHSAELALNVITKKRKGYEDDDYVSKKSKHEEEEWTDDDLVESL
T4 sequence (P51948 whole entry partner): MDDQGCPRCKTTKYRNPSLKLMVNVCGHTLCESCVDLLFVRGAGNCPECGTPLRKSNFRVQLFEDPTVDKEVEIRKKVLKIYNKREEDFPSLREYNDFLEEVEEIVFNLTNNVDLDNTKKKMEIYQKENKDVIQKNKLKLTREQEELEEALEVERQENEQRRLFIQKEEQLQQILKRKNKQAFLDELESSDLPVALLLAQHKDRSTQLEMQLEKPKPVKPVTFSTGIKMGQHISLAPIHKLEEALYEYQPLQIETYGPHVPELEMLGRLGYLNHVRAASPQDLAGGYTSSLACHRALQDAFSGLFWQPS

pIC50 [1] | pIC50 [2] | pIC50 [3] | CDK1/CDK7: Selectivity of CDK7 inhibition over CDK1 inhibition [4] | CDK2/CDK7: Selectivity of CDK7 inhibition over CDK2 inhibition [4] | pIC50 [4] | pIC50 [5] | pIC50 [6] | pIC50 [7] | pIC50 [8] | pIC50 [9] | pIC50 [10] | Structure (SMILES) | CDK5/CDK7: Selectivity of CDK7 inhibition over CDK5 inhibition [4]
< 6.00 | < 6.00 | < 6.00 | A (A=greater than 200 fold) | A (A=greater than 200 fold) | > 7.00 | > 6.00 | > 6.00 | ≥ 6.00 | > 6.00 | 5.00 to 6.00 |  | CC(C)c1cnn2c(N[C@@H](C)c3ccccc3-n3cccn3)nc(N3CCC(N)CC3)nc12 [Compound 21] | A (A=greater than 200 fold)
< 6.00 | < 6.00 | 6.00 to 7.00 | A (A=greater than 200 fold) | A (A=greater than 200 fold) | > 7.00 |  | > 6.00 | ≥ 6.00 | > 6.00 |  | < 5.00 | CC(C)c1cnn2c(NCc3ccccc3-n3cccn3)nc(N3CCC(N4CCNCC4)CC3)nc12 [Compound 174] | B (B=less than 200 fold, but greater than 20 fold)
< 6.00 | < 6.00 | < 6.00 | A (A=greater than 200 fold) | A (A=greater than 200 fold) | > 7.00 | > 6.00 | 5.00 to 6.00 | 5.00 to 6.00 | > 6.00 |  |  | CC(C)c1cnn2c(N[C@@H](C)c3ccccc3-n3cc(N4CCNCC4)cn3)nc(N3CCC(N)CC3)nc12 [Compound 192] | A (A=greater than 200 fold)
< 6.00 | < 6.00 | 6.00 to 7.00 | A (A=greater than 200 fold) | A (A=greater than 200 fold) | > 7.00 | > 6.00 | > 6.00 | ≥ 6.00 | > 6.00 |  |  | CC(C)c1cnn2c(NCc3c(Cl)cccc3-n3cc(N4CCNCC4)cn3)nc(N3CCC(N)CC3)nc12 [Compound 193] | B (B=less than 200 fold, but greater than 20 fold)
< 6.00 | < 6.00 | 6.00 to 7.00 | A (A=greater than 200 fold) | A (A=greater than 200 fold) | > 7.00 | > 6.00 | > 6.00 | ≥ 6.00 | > 6.00 |  |  | CC(C)c1cnn2c(NCc3c(Cl)cccc3-c3ccn(C4CCNCC4)n3)nc(N3CCC(N)CC3)nc12 [Compound 195] | A (A=greater than 200 fold)
< 6.00 | < 6.00 | 6.00 to 7.00 | A (A=greater than 200 fold) | A (A=greater than 200 fold) | > 7.00 | > 6.00 | 5.00 to 6.00 | 5.00 to 6.00 | > 6.00 |  |  | CC(C)c1cnn2c(NCc3c(Cl)cccc3-n3ccc(C(=O)NC4CCNCC4)n3)nc(N3CCC(N)CC3)nc12 [Compound 196] | A (A=greater than 200 fold)
< 6.00 | < 6.00 | 6.00 to 7.00 | A (A=greater than 200 fold) | A (A=greater than 200 fold) | > 7.00 | > 6.00 | > 6.00 | ≥ 6.00 | > 6.00 |  |  | CNC(=O)c1ccn(-c2cccc(Cl)c2CNc2nc(N3CCC(N)CC3)nc3c(C(C)C)cnn23)n1 [Compound 197] | B (B=less than 200 fold, but greater than 20 fold)
< 6.00 | < 6.00 | 6.00 to 7.00 | A (A=greater than 200 fold) | A (A=greater than 200 fold) | > 7.00 | > 6.00 | 5.00 to 6.00 | ≥ 6.00 | > 6.00 |  |  | CC(C)c1cnn2c(NCc3c(Cl)cccc3-n3ccc(C(=O)N4CCNCC4)n3)nc(N3CCC(N)CC3)nc12 [Compound 198] | A (A=greater than 200 fold)

Structure (SMILES) | pIC50 [1] | pIC50 [2] | pIC50 [3] | CDK1/CDK7: Selectivity of CDK7 inhibition over CDK1 inhibition [4] | CDK2/CDK7: Selectivity of CDK7 inhibition over CDK2 inhibition [4] | pIC50 [4] | pIC50 [5] | pIC50 [6] | pIC50 [7] | pIC50 [8] | pIC50 [9] | pIC50 [10] | CDK5/CDK7: Selectivity of CDK7 inhibition over CDK5 inhibition [4]
CNC(=O)c1ccc2nn(-c3ccccc3CNc3nc(N4CCC(N)CC4)nc4c(C(C)C)cnn34)cc2c1 [Compound 14] | 6.00 to 7.00 | 6.00 to 7.00 | 6.00 to 7.00 | A (A=greater than 200 fold) | B (B=less than 200 fold, but greater than 20 fold) | > 7.00 | > 6.00 | > 6.00 | ≥ 6.00 | > 6.00 | > 6.00 |  | B (B=less than 200 fold, but greater than 20 fold)
CC(C)c1cnn2c(NCc3ccccc3-n3cc4cc(Oc5ccccc5)ccc4n3)nc(N3CCC(N)CC3)nc12 [Compound 105] | < 6.00 | < 6.00 | < 6.00 | A (A=greater than 200 fold) | B (B=less than 200 fold, but greater than 20 fold) | > 7.00 |  | 5.00 to 6.00 | ≥ 6.00 |  | 5.00 to 6.00 | 5.00 to 6.00 | B (B=less than 200 fold, but greater than 20 fold)
CC(C)c1cnn2c(NCc3ccccc3-n3cc4c(n3)CCNC4=O)nc(N3CCC(N)CC3)nc12 [Compound 134] | < 6.00 | 6.00 to 7.00 | 6.00 to 7.00 | A (A=greater than 200 fold) | B (B=less than 200 fold, but greater than 20 fold) | > 7.00 | > 6.00 | 5.00 to 6.00 | 5.00 to 6.00 | > 6.00 | > 6.00 |  | B (B=less than 200 fold, but greater than 20 fold)
CC(C)c1cnn2c(NCc3ccccc3-c3cc4cccc(NC(=O)CCCN(C)C)c4[nH]3)nc(N3CCC(N)CC3)nc12 [Compound 143] | 6.00 to 7.00 | 6.00 to 7.00 | > 7.00 | B (B=less than 200 fold, but greater than 20 fold) | B (B=less than 200 fold, but greater than 20 fold) | > 7.00 |  | 5.00 to 6.00 | ≥ 6.00 | > 6.00 | 5.00 to 6.00 |  | C (C=less than 20 fold)
CC(C)c1cnn2c(NCc3ccccc3-c3cc4ccccc4[nH]3)nc(N3CCNC(=O)C3)nc12 [Compound 175] | < 6.00 | < 6.00 | < 6.00 | A (A=greater than 200 fold) | B (B=less than 200 fold, but greater than 20 fold) | > 7.00 | 5.00 to 6.00 | 5.00 to 6.00 | 5.00 to 6.00 | 5.00 to 6.00 | 5.00 to 6.00 |  | B (B=less than 200 fold, but greater than 20 fold)
